# Measurements as given in patent EP1283052A1, “Pharmaceutical composition containing caspase-8 and /or caspase-9 useful for overcoming glucocorticoid- and cancer therapy-induced apoptosis of tumours” (Deutsches Krebsforschungszentrum Stiftung des öffentlichen …, priority 2001, dated 2003).
# System: CD95-L, TRAIL and TNF-α
# Test: Western blot of death ligand expression in P5 and CEM cells
# Assay type: cell-based, human
# Conditions: cisplatin alone (1-5 µg/ml), both cell types; Fig. 2a
# Description: • (a) Left: P5 an CEM cells were treated with cisplatin (1-5 µg/ml) in the absence or presence of DEX (1 µM) as indicated. Proteins were extracted and expression of CD95-L, TRAIL or TNF-α was detected by Western blot analysis. The size of the proteins in kDa is indicated. Right: HeLa and P5 were treated with CD95 agonistic antibody αAPO-1 (CD95, 1 µg/ml), recombinant TRAIL protein (TRAIL, 100 ng/ml) or recombinant TNF-α protein (TNF-α, 100 ng/ml) in the absence (white bars) or presence (black bars) of DEX (1 µM). 24 h later the percentage of apoptosis was determined by annexin-staining and FACS-analysis in untreated (CO) and stimulated cells at the time points indicated. • (b) P693 and CEM cells were treated with cisplatin (2 µg/ml) in the absence or presence of DEX as indicated. 24 and 48 h following treatment cells were lysed and caspase-8 activity was determined by a fluorescent caspase-8 assay and spectroscopy. • (c) P5 cells were stable transfected with empty vector (pcDNA3), or pcDNA3 vector encoding dominant negative FADD protein (FADD-DN). Proteins were extracted from both cell lines and expression of wildtype (WT) and FADD-DN (DN) was detected by Western blot. Left: Stable transfected P5 cells were treated with αAPO-1 (1 µg/ml) and 24 h later apoptosis was determined by staining with annexin/propidium iodide and flow-cytometry. […]
smiles,measurement,value
N.N.[Cl][Pt][Cl] [cisplatin],"expression of DILs such as CD95-L, TRAIL and TNF-α",enhanced expression
